From patent US8507464B2, “Phosphoramidate alkylator prodrugs” (Threshold Pharmaceuticals, Inc., priority 2005, dated 2013)
Read-outs that look alike come from different tables or passages of the source.

Columns and labels:
[1] = assay type: physicochemical; settings: glassy carbon, Ag/AgCl reference; for Reduction Potentials, 100 mV/sec: scan rate 100 mV/sec; for Reduction Potentials, 10,000 mV/sec: scan rate 10,000 mV/sec
H460 cell line = test: Anti-proliferation assay, hypoxia vs normoxia (Table 1A); settings: for IC50: Homo sapiens; for HCR P: ratio of IC50 in normoxia and hypoxia
NCI-H460 cells [2] = test: Antiproliferation assay (Alamar Blue), anoxia vs air
NCI-H460 cells [3] = test: Antiproliferation assay - oxygen dependence; assay type: cell-based, human
From the text: . […] The calculated IC50 values (μM) are tabulated in Table Y1 (H460 cells) or Table Y2 (HT29 cells) below.

[4] = NCI-H460, read-out: Hypoxia P (proliferation IC50)
[5] = NCI-H460, read-out: Normoxia P (proliferation IC50)
[6] = Homo sapiens, NCI-H460, 2 h, read-out: IC50 H460 Air, air, 2 h exposure
[7] = Homo sapiens, NCI-H460, 2 h, read-out: IC50 H460 Anoxia, anoxia, 2 h exposure
[8] = read-out: IC50 in H460 cells, 0.6% O2
[9] = Homo sapiens, NCI-H460, read-out: IC50 in H460 cells, 0.6% O2
[10] = Homo sapiens, NCI-H460, read-out: IC50 in H460 cells, Air
[11] = read-out: IC50 H460 Air, air, 2 h exposure
[12] = read-out: IC50 H460 Anoxia, anoxia, 2 h exposure
[13] = Air; read-out: IC50 in H460 cells, Air
[14] = Homo sapiens, NCI-H460, read-out: IC50 in H460 cells, N2

Row | Compound | IC50 (H460 cell line; [4]) [µM] | IC50 (H460 cell line; [5]) [µM] | HCR P (H460 cell line) | IC50 (NCI-H460 cells [2]; [6]) [µM] | IC50 (NCI-H460 cells [2]; [7]) [µM] | other results
1 | O=[N+]([O-])c1ncc[nH]1 [2-NO2-Imidazole, reference compound] | – | – | – | – | – | Reduction Potentials, 100 mV/sec [1]: −634 mV; Reduction Potentials, 10,000 mV/sec [1]: −693 mV
2 | CC(OP(N)(=O)N(CCCl)CCCl)c1ncc([N+](=O)[O-])n1C (centres unmarked) [Compound 2] | 8 | > 100 | >12 | > 100 | 8 | –
3 | Cn1c([N+](=O)[O-])cnc1COc1ccc(COP(N)(=O)N(CCCl)CCCl)cc1F (centres unmarked) [Compound 3] | > 20 | > 100 | >5 | > 100 | > 20 | –
4 | CN(C)P(=O)(OCc1cnc([N+](=O)[O-])n1C)N(CCCl)CCCl (centres unmarked) [Compound 4] | 40 | > 100 | >2 | > 100 | 40 | –
5 | CN(CCCl)P(=O)(OCc1ccc([N+](=O)[O-])o1)N(C)CCCl [Compound 8] | 0.01 | 0.6 | 60 | 0.6 | 0.013 | –
6 | CN(CCCl)P(=O)(OCc1ncc([N+](=O)[O-])n1C)N(C)CCCl [Compound 9] | > 10 | > 100 | >10 | > 100 | > 10 | –
7 | O=[N+]([O-])c1ccc(COP(=O)(N(CCCl)CCCl)N2CCCC2)o1 (centres unmarked) [Compound 11] | 5.2 | > 100 | >20 | > 100 | 5.2 | –
8 | O=[N+]([O-])c1ccc(COP(=O)(N(CCCl)CCCl)N2CCOCC2)o1 (centres unmarked) [Compound 12] | 1.7 | > 100 | >50 | > 100 | 1.7 | –
9 | CC(C)N(CCCl)P(=O)(OCc1cnc([N+](=O)[O-])n1C)N(CCCl)C(C)C [Compound 14] | 8.5 | > 100 | >12 | > 100 | 8.5 | –
10 | CCN(CCCl)P(=O)(OCc1cnc([N+](=O)[O-])n1C)N(CC)CCCl [Compound 15] | 0.08 | 1 | 12 | 1 | 0.08 | –
11 | CN(CCCl)P(=O)(OCc1c(F)c(F)c(OCc2ncc([N+](=O)[O-])n2C)c(F)c1F)N(C)CCCl [Compound 17] | 1 | 9 | 9 | 9 | 1 | –
12 | COc1cc(COP(=O)(N(C)CCCl)N(C)CCCl)ccc1OCc1cnc([N+](=O)[O-])n1C [Compound 18] | 3.4 | 9 | 3 | 9 | 3.4 | –
13 | O=[N+]([O-])c1ccc(COP(=O)(NCCCCNP(=O)(OCc2ccc([N+](=O)[O-])o2)N(CCCl)CCCl)N(CCCl)CCCl)o1 (centres unmarked) [Compound 20] | 1 | 8.5 | 8 | – | – | –
14 | O=[N+]([O-])c1ccc(COP(=O)(NCCNP(=O)(OCc2ccc([N+](=O)[O-])o2)N(CCCl)CCCl)N(CCCl)CCCl)o1 (centres unmarked) [Compound 21] | 0.25 | 7.8 | 26 | – | – | –
15 | Cn1c(COc2ccc(COP(N)(=O)N(CCCl)CCCl)cc2F)cnc1[N+](=O)[O-] (centres unmarked) [Compound 22] | 0.7 | 16 | 23 | 16 | 0.7 | –
16 | Cn1c(COc2ccc(COP(=O)(NCCCl)NCCCl)cc2F)cnc1[N+](=O)[O-] [Compound 27] | 2.5 | 100 | 40 | 100 | – | –
17 | O=[N+]([O-])c1ccc(COCOP(=O)(NCCCl)NCCCl)o1 [Compound 31] | 83 | > 100 | >1 | > 100 | 83 | –

Row | Compound | IC50 (H460 cell line; [4]) [µM] | IC50 (H460 cell line; [5]) [µM] | HCR P (H460 cell line) | IC50 (NCI-H460 cells [2]; [6]) [µM] | IC50 (NCI-H460 cells [2]; [7]) [µM] | other results
18 | Cn1c(COP(=O)(NCCCl)NCCCl)nc(Br)c1[N+](=O)[O-] [Compound 32] | 50 | 100 | 2 | 100 | 50 | –
19 | C[C@H](CBr)NP(=O)(N[C@H](C)CBr)OCc1cnc([N+](=O)[O-])n1C [Compound 66] | – | – | – | – | – | IC50 (NCI-H460 cells [2]; read-out: IC50 H460 Anoxia): 0.3 µM; IC50 (NCI-H460 cells [3]; [8]): 20 µM; IC50 (NCI-H460 cells [3]; read-out: IC50 in H460 cells, N2): 0.3 µM
20 | CC(OP(=O)(NCCBr)NCCBr)c1ccc([N+](=O)[O-])cc1 (centres unmarked) [Compound 78] | – | – | – | > 100 | > 100 | Reduction Potentials, 100 mV/sec [1]: −704 mV; Reduction Potentials, 10,000 mV/sec [1]: −746 mV
21 | CCCn1c(COP(=O)(NCCBr)NCCBr)cnc1[N+](=O)[O-] [Compound 84] | – | – | – | 40 | 0.003 | IC50 (NCI-H460 cells [3]; [9]): 3 µM; IC50 (NCI-H460 cells [3]; [10]): 40 µM
22 | N#Cc1cc(C#CCOP(=O)(NCCBr)NCCBr)sc1[N+](=O)[O-] [Compound 98] | – | – | – | – | – | IC50 (NCI-H460 cells [2]; [11]): 2 µM; IC50 (NCI-H460 cells [2]; [12]): 0.1 µM; IC50 (NCI-H460 cells [3]; [13]): 2 µM; IC50 (NCI-H460 cells [3]; [8]): 0.5 µM
23 | CC#Cc1cc(COP(=O)(NCCBr)NCCBr)sc1[N+](=O)[O-] [Compound 99] | – | – | – | – | – | IC50 (NCI-H460 cells [2]; [11]): 1 µM; IC50 (NCI-H460 cells [2]; [12]): 0.1 µM; IC50 (NCI-H460 cells [3]; [13]): 1 µM; IC50 (NCI-H460 cells [3]; [8]): 0.5 µM
24 | Cc1csc(C(C)OP(=O)(NCCCl)NCCCl)c1[N+](=O)[O-] (centres unmarked) [Compound 100] | – | – | – | – | – | IC50 (NCI-H460 cells [2]; [11]): 35 µM; IC50 (NCI-H460 cells [2]; [12]): 0.5 µM; IC50 (NCI-H460 cells [3]; [13]): 35 µM; IC50 (NCI-H460 cells [3]; N2; read-out: IC50 in H460 cells, N2): 0.5 µM; IC50 (NCI-H460 cells [3]; [8]): 10 µM
25 | Cc1csc(C(C)OP(=O)(NCCBr)NCCBr)c1[N+](=O)[O-] (centres unmarked) [Compound 103] | – | – | – | – | – | Reduction Potentials, 10,000 mV/sec [1]: −756 mV; IC50 (NCI-H460 cells [2]; [11]): 2 µM; IC50 (NCI-H460 cells [2]; [12]): 0.02 µM
26 | O=[N+]([O-])c1ccc(COP(=O)(NCCOS(=O)(=O)c2ccccc2)NCCOS(=O)(=O)c2ccccc2)o1 [Compound 106] | – | – | – | – | – | IC50 (NCI-H460 cells [2]; Homo sapiens, NCI-H460, 2 h, read-out: IC50 H460 Air): 3.5 µM; IC50 (NCI-H460 cells [2]; Homo sapiens, NCI-H460, 2 h, read-out: IC50 H460 Anoxia): 0.09 µM; IC50 (NCI-H460 cells [3]; [9]): 0.7 µM; IC50 (NCI-H460 cells [3]; Homo sapiens, NCI-H460; read-out: IC50 in H460 cells, Air): 4 µM; IC50 (NCI-H460 cells [3]; Homo sapiens, NCI-H460; read-out: IC50 in H460 cells, N2): 0.1 µM
27 | O=[N+]([O-])c1ccc(COP2(=O)N(CCBr)CCN2CCBr)o1 [Compound 109] | – | – | – | 13 | 0.3 | IC50 (NCI-H460 cells [3]; [9]): 10 µM; IC50 (NCI-H460 cells [3]; [10]): 15 µM; IC50 (NCI-H460 cells [3]; [14]): 0.3 µM
28 | O=[N+]([O-])c1ccc(COP2(=O)N(CCBr)CCN2CCBr)s1 [Compound 110] | – | – | – | 21 | 0.3 | IC50 (NCI-H460 cells [3]; [9]): 3 µM; IC50 (NCI-H460 cells [3]; [10]): 25 µM; IC50 (NCI-H460 cells [3]; [14]): 0.3 µM
29 | CC(C)(OP(N)(=O)N(CCCl)CCCl)c1ccc([N+](=O)[O-])cc1 (centres unmarked) [Compound 113] | – | – | – | ≥ 100 | 1 | IC50 (NCI-H460 cells [3]; [9]): > 100 µM; IC50 (NCI-H460 cells [3]; [10]): > 100 µM; IC50 (NCI-H460 cells [3]; [14]): 1 µM
30 | CC(OP(N)(=O)N(CCCl)CCCl)c1cnc([N+](=O)[O-])n1C (centres unmarked) [Compound 114] | – | – | – | 80 | 1 | IC50 (NCI-H460 cells [3]; [9]): 5 µM; IC50 (NCI-H460 cells [3]; [10]): 80 µM; IC50 (NCI-H460 cells [3]; [14]): 1 µM
31 | O=[N+]([O-])c1ccc(COP(=O)(N(CCCl)CCCl)N(CCCl)CCCl)o1 [Compound P22, reference compound] | 4.5 | 3.5 | ca. 1 | – | – | –
32 | Cn1c([N+](=O)[O-])cnc1COc1ccc(COP(N)(=O)N(CCCl)CCCl)cc1 (centres unmarked) [Compound S1] | > 40 | > 100 | >3 | – | – | –
33 | Cn1c(COP2(=O)N(CCCl)CCN2CCCl)cnc1[N+](=O)[O-] [Compound S2] | 7 | > 100 | >14 | – | – | –
